Data as given in US8722665B2, “Cinnamido-pyrrolo[2,1-C][1,4]benzodiazepines as potential anticancer agents and process for the preparation thereof” (Council of Scientific & Industrial Research, priority 2008, dated 2014).

Experiments:
NCI-H226 = assay: In vitro cytotoxicity (SRB); format: cell-based, human; conditions: NCI-H226 (Non-small cell lung); 48 h continuous drug exposure
Procedure: (§1) The compounds were evaluated for in vitro anticancer activity against sixty human tumour cells derived from nine cancer types (leukemia, non-small-cell lung, colon, CNS, melanoma, ovarian, prostate, and breast cancer) as shown in Table 1a. For each compound, dose response curves for each cell line were measured at a minimum of five concentrations at 10 fold dilutions. A protocol of 48 h continuous drug exposure was used and a sulforhodamine B (SRB) protein assay was used to estimate cell viability or growth. The concentration causing 50% cell growth inhibition (GI50), total cell growth inhibition (TGI 0% growth) and 50% cell death (LC50, −50% growth) compared with the control was calculated. The Log10 GI50 (concentration in mol/L causing 50% growth inhibition) values for Cinnamido-pyrrolo[2,1-c][1,4]benzodiazepine (8b) is listed in Table 2.

SK-MEL-28 = assay: In vitro cytotoxicity (SRB); format: cell-based, human; conditions: SK-MEL-28 (Melanoma); 48 h continuous drug exposure
Procedure: as §1

MALME-3M = assay: In vitro cytotoxicity (SRB); format: cell-based, human; conditions: MALME-3M (Melanoma); 48 h continuous drug exposure
Procedure: as §1

OVCAR-4 = assay: In vitro cytotoxicity (SRB); format: cell-based, human; conditions: OVCAR-4 (Ovarian); 48 h continuous drug exposure
Procedure: as §1

MDA-MB-231/ATCC = assay: In vitro cytotoxicity (SRB); format: cell-based, human; conditions: MDA-MB-231/ATCC (Breast); 48 h continuous drug exposure
Procedure: as §1

SK-MEL-5 = assay: In vitro cytotoxicity (SRB); format: cell-based, human; conditions: SK-MEL-5 (Melanoma); 48 h continuous drug exposure
Procedure: as §1

MOLT-4 = assay: In vitro cytotoxicity (SRB); format: cell-based, human; conditions: MOLT-4 (Leukemia); 48 h continuous drug exposure
Procedure: as §1

786-0 = assay: In vitro cytotoxicity (SRB); format: cell-based, human; conditions: 786-0 (Renal); 48 h continuous drug exposure
Procedure: as §1

HT29 = assay: In vitro cytotoxicity (SRB); format: cell-based, human; conditions: HT29 (Colon); 48 h continuous drug exposure
Procedure: as §1

IGROV1 = assay: In vitro cytotoxicity (SRB); format: cell-based, human; conditions: IGROV1 (Ovarian); 48 h continuous drug exposure
Procedure: as §1

CAKI-1 = assay: In vitro cytotoxicity (SRB); format: cell-based, human; conditions: CAKI-1 (Renal); 48 h continuous drug exposure
Procedure: as §1

U251 = assay: In vitro cytotoxicity (SRB); format: cell-based, human; conditions: U251 (CNS); 48 h continuous drug exposure
Procedure: as §1

SF-295 = assay: In vitro cytotoxicity (SRB); format: cell-based, human; conditions: SF-295 (CNS); 48 h continuous drug exposure
Procedure: as §1

CCRF-CEM = assay: In vitro cytotoxicity (SRB); format: cell-based, human; conditions: CCRF-CEM (Leukemia); 48 h continuous drug exposure
Procedure: as §1

UO-31 = assay: In vitro cytotoxicity (SRB); format: cell-based, human; conditions: UO-31 (Renal); 48 h continuous drug exposure
Procedure: as §1

HOP-92 = assay: In vitro cytotoxicity (SRB); format: cell-based, human; conditions: 48 h continuous drug exposure
Procedure: as §1

SK-OV-3 = assay: In vitro cytotoxicity (SRB); format: cell-based, human; conditions: SK-OV-3 (Ovarian); 48 h continuous drug exposure
Procedure: as §1

[1] = test system: duplex-form calf thymus DNA (CT-DNA); assay: Thermal denaturation studies with calf thymus DNA; format: binding; conditions: [PBD]:[DNA] molar ratio 1:5, CT-DNA 100 μM, ligand 20 μM, pH 7.00
Procedure: Compounds have been subjected to thermal denaturation studies with duplex-form calf thymus DNA (CT-DNA) using an modification of a reported procedure (Newman, M. S. Carcinog-compr. Surv. 1976, 1, 203; (b) Hecht, S. S.; Loy, M.; Hoffman, Carcinog-compr. Surv. 1976, 1, 325). Working solutions in aqueous buffer (10 mM NaH2PO4/Na2HPO4, 1 mM Na2EDTA, pH 7.00+0.01) containing CT-DNA (100 μm in phosphate) and the PBD (20 μm) have been prepared by addition of concentrated PBD solutions in DMSO to obtain a fixed [PBD]/[DNA] molar ratio of 1:5. The DNA-PBD solutions have been incubated at 37° C. for 0 and 18 h prior to analysis. Samples have been monitored at 260 nm using a Beckman DU-800 spectrophotometer fitted with high performance temperature controller, and heated at 1° C. min^−1 in the 40-110° C. range. DNA helix→coil transition temperatures (Tm) have been obtained from the maxima in the d(A260)/dT derivative plots. Drug-induced alterations in DNA melting behavior are given by: ΔTm=Tm(DNA+PBD)−Tm(DNA alone), where the Tm value for the PBD-free CT-DNA is 69.1±0.01.
The DNA binding activity for these Cinnamido-pyrrolo[2,1-c][1,4]benzodiazepines have been examined by thermal denaturation studies using calf thymus (CT) DNA. […] The data for the compounds 8b&d, 11b&d, 14b&d and 17b&d is included in Table 1 for comparison.

Prostate cell lines = assay: In vitro cytotoxicity (SRB), cancer panel; format: cell-based, human; conditions: average of six to eight cell lines, 48 h exposure
Procedure: as §1

Leukemia cell lines = assay: In vitro cytotoxicity (SRB), cancer panel; format: cell-based, human; conditions: average of six to eight cell lines, 48 h exposure
Procedure: as §1

Ovarian cell lines = assay: In vitro cytotoxicity (SRB), cancer panel; format: cell-based, human; conditions: average of six to eight cell lines, 48 h exposure
Procedure: as §1

Breast cell lines = assay: In vitro cytotoxicity (SRB), cancer panel; format: cell-based, human; conditions: average of six to eight cell lines, 48 h exposure
Procedure: as §1

Colon cell lines = assay: In vitro cytotoxicity (SRB), cancer panel; format: cell-based, human; conditions: average of six to eight cell lines, 48 h exposure
Procedure: as §1

Melanoma cell lines = assay: In vitro cytotoxicity (SRB), cancer panel; format: cell-based, human; conditions: average of six to eight cell lines, 48 h exposure
Procedure: as §1

Renal cell lines = assay: In vitro cytotoxicity (SRB), cancer panel; format: cell-based, human; conditions: average of six to eight cell lines, 48 h exposure
Procedure: as §1

[2] = test system: Non-small-cell lung cell lines; assay: In vitro cytotoxicity (SRB), cancer panel; format: cell-based, human; conditions: average of six to eight cell lines, 48 h exposure
Procedure: as §1

CNS cell lines = assay: In vitro cytotoxicity (SRB), cancer panel; format: cell-based, human; conditions: average of six to eight cell lines, 48 h exposure
Procedure: as §1

[3] = test system: sixty human tumour cell lines; assay: In vitro cytotoxicity (SRB), mean graph midpoints; format: cell-based; conditions: 48 h exposure
Procedure: as §1

## COc1cc(/C=C/C(=O)N2CCN(C(=O)c3cc(OC)c(OC)c(OC)c3)CC2)ccc1OCCCOc1cc2c(cc1OC)C(=O)N1CCC[C@H]1C=N2 [8b, 7-methoxy-8-{3-(2-methoxy-4-(E)-3-oxo-3-[4-(3,4,5-trimethoxybenzoyl)piperazino]-1-propenylphenoxy)propoxy}-(11aS)-2,3,5,11^a-tetrahydro-5H-pyrrolo[2,1-c][1,4]benzo-diazepine-5-one]
NCI-H226
  GI50: 250 nM
SK-MEL-28
  GI50: 210 nM
MALME-3M
  GI50: 200 nM
OVCAR-4
  GI50: 2200 nM
MDA-MB-231/ATCC
  GI50: 230 nM
SK-MEL-5
  GI50: 190 nM
MOLT-4
  GI50: 200 nM
786-0
  GI50: 490 nM
HT29
  GI50: 400 nM
IGROV1
  GI50: 270 nM
CAKI-1
  GI50: 1120 nM
U251
  GI50: 270 nM
SF-295
  GI50: 10 nM
CCRF-CEM
  GI50: 250 nM
UO-31
  GI50: 1150 nM
HOP-92; HOP-92, first line so named (Non-small cell lung)
  GI50: 320 nM
HOP-92; HOP-92, second line so named (Non-small cell lung)
  GI50: 170 nM
SK-OV-3
  GI50: 490 nM
[1]; 0 h incubation at 37° C.
  (ΔTm ° C.) after incubation at 37° C. for 0 h: 1.2 °C
[1]; 18 h incubation at 37° C.
  (ΔTm ° C.) after incubation at 37° C. for 18 h: 2.1 °C
Prostate cell lines
  Log10 GI50: −6.44 mol/L
Leukemia cell lines
  Log10 GI50: −6.77 mol/L
Ovarian cell lines
  Log10 GI50: −6.36 mol/L
Breast cell lines
  Log10 GI50: −6.51 mol/L
Colon cell lines
  Log10 GI50: −6.43 mol/L
Melanoma cell lines
  Log10 GI50: −6.64 mol/L
Renal cell lines
  Log10 GI50: −6.20 mol/L
[2]
  Log10 GI50: −6.31 mol/L
CNS cell lines
  Log10 GI50: −6.78 mol/L
[3]
  Log10 GI50 mean graph midpoint (MG_MID): −6.48 mol/L
  Log10 LC50 mean graph midpoint (MG_MID): −4.5
  Log10 TGI mean graph midpoint (MG_MID): −5.59
